Data set [1] has as its system MCF7/6. Kind of data set: Antiinvasive activity against human MCF7/6 cells precultured with 9 day old chick embryo heart tissue fragment at 100 micromol/l by chick heart invasion assay. It counts as functional, cell-based.
For data set [2], the system named is MCF7/6. Nature of the data set: Antiinvasive activity against human MCF7/6 cells precultured with 9 day old chick embryo heart tissue fragment at 10 micromol/l by chick heart invasion assay. It is filed as functional, cell-based.
Data set [3] has as its system MCF7/6. Nature of the data set: Antiinvasive activity against human MCF7/6 cells precultured with 9 day old chick embryo heart tissue fragment at 1 micromol/l by chick heart invasion assay. It counts as functional, cell-based.
Data set [4] concerns MCF7/6. Nature of the data set: Antiinvasive activity against human MCF7/6 cells precultured with 9 day old chick embryo heart tissue fragment at 0.1 micromol/l by chick heart invasion assay. It is filed as functional, cell-based.
Data set [5] can be described thus: Antiinvasive activity against human MCF7/6 cells precultured with 9 day old chick embryo heart tissue fragment assessed as lowest concentration by chick heart invasion assay. It is filed as functional.
A short description of data set [6]: Cytotoxicity against human MCF7/6 cells at 100 umol/l. It is filed as cell-based. As to conditions: mcf7/6, 100 µM.
The nature of data set [7]: Cytotoxicity against human MCF7/6 cells at 10 umol/l. It counts as cell-based. The conditions noted are these: mcf7/6, 10 µM.
Data set [8] deals with MCF7/6. Nature of the data set: Antiinvasive activity against human MCF7/6 cells precultured with 9 day old chick embryo heart tissue fragment at 0.01 micromol/l by chick heart invasion assay. It counts as functional, cell-based.

The source made the active and inactive calls. The rule behind the calls is not given here.

For `O=C(/C=C/C=C/c1ccccc1)c1ccccc1`, the outcome in the data set on MCF7/6 [1] was Active. Besides, the outcome in the data set with MCF7/6 [2], with MCF7/6 [3] and with MCF7/6 [4] was inactive. Besides, the logMIC in data set [5] stood at 2. Also, the Activity result in data set [6] and in data set [7] was “Toxic” in each case.

Take `O=C(/C=C/c1ccc(O)cc1)CC(=O)/C=C/c1ccc(O)cc1` [BISDEMETHOXYCURCUMIN]: the result in the data set with MCF7/6 [2] was Active. The result with MCF7/6 [3] and with MCF7/6 [4] was inactive. In addition, in data set [5], the logMIC is 1. For the same compound, the Activity entry in data set [7] was “Toxic”.

On to `COc1cc(C(=O)/C=C/c2ccc(F)cc2)cc(OC)c1OC`, for which the outcome in the data set with MCF7/6 [2], in the data set on MCF7/6 [3], with MCF7/6 [4] and with MCF7/6 [8] was Active. Moreover, the logMIC in data set [5] is given as -2. In addition, in data set [7], the Activity result is reported as “Non-toxic”.

`O=C(/C=C/c1ccccc1)/C=C/c1ccccc1`: the outcome in the data set on MCF7/6 [1], in the data set on MCF7/6 [2] and with MCF7/6 [3] was Active. Besides, the result with MCF7/6 [4] and with MCF7/6 [8] was inactive. Moreover, the logMIC in data set [5] amounted to 0. The Activity result in data set [6] is on record as “Toxic”.

Turning to `COc1cc(/C=C\c2ccc(F)cc2)cc(OC)c1OC`, the logMIC in data set [5] is given as 1.

Consider `COc1cc(C(=O)/C=C/C=C/c2ccccc2)cc(OC)c1OC`, for which the result in the data set with MCF7/6 [1] and in the data set with MCF7/6 [2] was Active. Further, the result in the data set on MCF7/6 [3], in the data set with MCF7/6 [4] and in the data set with MCF7/6 [8] was inactive. Moreover, the logMIC in data set [5] was found to be 1. In addition, the Activity result in data set [6] and in data set [7] was “Toxic” throughout.

For the compound `O=C(/C=C/c1ccccc1)c1ccccc1` [CHALCONE], the outcome in the data set with MCF7/6 [2] was Active. Further, the result in the data set with MCF7/6 [3] was inactive. The logMIC in data set [5] is 1.

As to `O=C(/C=C/C=C/c1ccccc1)c1ccc(Cl)cc1`, the outcome with MCF7/6 [1] and with MCF7/6 [3] was Active. In addition, the outcome with MCF7/6 [2] and in the data set with MCF7/6 [4] was inactive. Moreover, the logMIC in data set [5] is listed as 3.

Consider `C(=C\c1ccccc1)/c1ccccc1`, for which, in data set [5], the logMIC is given as -1.

As to `COc1cc(/C=C/C(=O)CC(=O)/C=C/c2ccc(O)c(OC)c2)ccc1O` [CURCUMIN], the outcome in the data set with MCF7/6 [2] was Active. In addition, the result in the data set with MCF7/6 [3] and in the data set with MCF7/6 [4] was inactive. Besides, the logMIC in data set [5] was 1.

Take `COc1cc(C(=O)/C=C/C=C/c2ccc(F)cc2)cc(OC)c1OC`: the outcome in the data set on MCF7/6 [2] was Active. Further, the outcome in the data set on MCF7/6 [3] and in the data set on MCF7/6 [4] was inactive. Besides, the logMIC in data set [5] turned out to be 1. Also, in data set [7], the Activity entry was “Toxic”.

Turning to `COc1cc(/C=C/c2ccc(F)cc2)cc(OC)c1OC`, the logMIC in data set [5] was found to be 0.

Turning to `O=C(/C=C/C=C/c1ccccc1)/C=C/c1ccccc1`, the result in the data set on MCF7/6 [1], in the data set on MCF7/6 [2] and in the data set with MCF7/6 [3] was Active. The outcome in the data set with MCF7/6 [4] and with MCF7/6 [8] was inactive. In addition, the logMIC in data set [5] was 0. In addition, the Activity entry in data set [6] is reported as “Toxic”.

With `O=C(/C=C/C=C/c1ccccc1)c1ccc(F)cc1`, the outcome in the data set with MCF7/6 [1] and in the data set with MCF7/6 [3] was Active. For the same compound, the outcome with MCF7/6 [4] and in the data set on MCF7/6 [8] was inactive. In data set [5], the logMIC worked out at 0. Besides, the Activity result in data set [6] and in data set [7] was “Toxic” each time.
